Drawing on patent publication US5470833A, “Endothelin antagonistic peptide derivatives” (Banyu Pharmaceutical Co., Ltd., priority 1990, dated 1995), this text covers inhibition for 37 compounds.

This experiment concerns the target T1, endothelin receptor (membrane of smooth muscle tissue of porcine aorta) (Sus scrofa, UniProt Q29010).
T1 construct: from tissue; host or cells: porcine aorta smooth muscle, membrane fraction
T1 sequence (Q29010 21-427): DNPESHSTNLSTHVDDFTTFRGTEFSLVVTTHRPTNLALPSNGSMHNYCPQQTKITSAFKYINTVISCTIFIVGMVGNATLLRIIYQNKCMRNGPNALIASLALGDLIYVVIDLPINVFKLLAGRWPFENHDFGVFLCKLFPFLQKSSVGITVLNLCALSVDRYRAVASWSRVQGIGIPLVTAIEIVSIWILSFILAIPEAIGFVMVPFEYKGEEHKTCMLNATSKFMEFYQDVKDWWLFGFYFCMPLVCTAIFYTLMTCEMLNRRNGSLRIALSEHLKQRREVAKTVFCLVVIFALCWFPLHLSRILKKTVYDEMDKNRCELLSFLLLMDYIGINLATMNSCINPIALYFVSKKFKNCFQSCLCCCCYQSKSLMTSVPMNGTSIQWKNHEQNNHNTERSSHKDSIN
Nature of the experiment: Endothelin binding inhibition test (125I-endothelin-1, porcine aorta smooth muscle membrane). The following applies: read-out: 125I-endothelin-1 binding inhibition; for inhibition at 1.1 µM: 1.1 μM test compound (no mark). The procedure:
The smooth muscle tissue of porcine aorta was homogenized in a buffer solution of 10 mM MOPS, pH 7.4, at 4° C. by a polytron. To the homogenate, sucrose was added to a concentration of 20%, and the mixture was centrifuged at 1,000×g for 15 minutes, and the supernatant was further centrifuged at 10,000×g for 15 minutes. The supernatant thereof was further centrifuged at 90,000×g for 40 minutes. The membrane precipitate thereby obtained was suspended in a buffer solution of 5 mM HEPES/Tris, pH 7.4, at a concentration of 25 mg/ml.
Then, 16 μl of this membrane suspension was added to 340 μl of 50 mM Tris/HCl buffer, pH 7.4, containing 10 μM calcium chloride, 10 μM magnesium chloride, 0.1 mM PMSF, 1 μM pepstatin A, 2 μM leupeptin, 1 mM 1,10-phenanthroline and 0.1% bovine serum albumin. To this suspension, 4 μl of (A) endothelin-1 (for nonspecific binding; 0.2 μM as the final concentration), (B) buffer solution A (for total control binding), or (C) a test compound (1.1 μM or 10 μM as the final concentration),was added. Further, to each suspension, 40 μl of ^125 I-endothelin-1 (12000-18000 cpm) was added. These mixtures were incubated at 25° C. for 4 hours, then subjected to filtration on a glass filter GF/C and then washed with 5 mM HEPES/Tris, pH 7.4, containing 0.3% bovine serum albumin. Then, the radioactivity trapped by the glass filter was measured, and the ^125 I-endothelin-1 binding inhibition D (%) at 1.1 μM or 10 μM of the test compound was determined by the following equation. [formula] Each test was performed in triplicate.
The test compounds are indicated by Compound Nos.

Like-named read-outs stand apart in the source and are kept apart here. Square brackets hold non-standard residues; d marks the D form. Peptide text beside a SMILES is read from it. * marks the point of attachment. ξ: configuration not given here. d(β3hW) = N[C@@H](CC(=O)O)Cc1c[nH]c2ccccc12; dNMeW = CN[C@H](Cc1c[nH]c2ccccc12)C(=O)O; d(β3hF) = N[C@@H](CC(=O)O)Cc1ccccc1; β3hF = N[C@H](CC(=O)O)Cc1ccccc1; dPhg = N[C@@H](C(=O)O)c1ccccc1; NMeL = CN[C@@H](CC(C)C)C(=O)O; d(β3hA) = C[C@@H](N)CC(=O)O; dNle = CCCC[C@@H](N)C(=O)O; ξ2Thi = NC(Cc1cccs1)C(=O)O; 3Abz = Nc1cccc(C(=O)O)c1; Nva = CCC[C@H](N)C(=O)O; Cbz = O=C(OCc1ccccc1)*; Boc = CC(C)(C)OC(=O)*; Aib = CC(C)(N)C(=O)O; OBn = c1ccc(CO*)cc1; Ahx = NCCCCCC(=O)O; GABA = NCCCC(=O)O; βAla = NCCC(=O)O

For `CC(C)C[C@H](NC(=O)OC(C)(C)C)C(=O)N[C@H](Cc1c[nH]c2ccccc12)C(=O)N[C@H](C)CC(=O)O` [Compound 1] (Boc-Leu-[dW]-[d(β3hA)]-OH), the inhibition (commonly the relative decrease from the control value, in per cent) at 1.1 µM came to 74%.

On to `CC(C)C[C@H](NC(=O)OC(C)(C)C)C(=O)N[C@H](Cc1c[nH]c2ccccc12)C(=O)N[C@H](Cc1c[nH]c2ccccc12)C(=O)O` [Compound 2] (Boc-Leu-[dW]-[dW]-OH), for which the inhibition at 1.1 µM is 83%.

With `CC(C)C[C@H](NC(=O)OC(C)(C)C)C(=O)N[C@H](Cc1c[nH]c2ccccc12)C(=O)N[C@H](CC(C)C)C(=O)O` [Compound 3] (Boc-Leu-[dW]-[dL]-OH), the inhibition at 1.1 µM amounted to 31%.

On to `CC(C)C[C@H](NC(=O)OC(C)(C)C)C(=O)N[C@H](Cc1c[nH]c2ccccc12)C(=O)N[C@H](Cc1c[nH]cn1)C(=O)O` [Compound 4] (Boc-Leu-[dW]-[dH]-OH), for which the inhibition at 1.1 µM was 80%.

For `CC(C)C[C@H](NC(=O)OC(C)(C)C)C(=O)N[C@H](Cc1c[nH]c2ccccc12)C(=O)NCCCC(=O)O` [Compound 5] (Boc-Leu-[dW]-[GABA]-OH), the inhibition at 1.1 µM came to 33%.

`CC(C)C[C@H](NC(=O)OC(C)(C)C)C(=O)N[C@H](Cc1c[nH]c2ccccc12)C(=O)NCCCCCC(=O)O` [Compound 6] (Boc-Leu-[dW]-[Ahx]-OH): the inhibition at 10 µM (10 μM test compound (marked *)) was 37%.

On to `CC(C)C[C@H](NC(=O)OC(C)(C)C)C(=O)N[C@H](Cc1c[nH]c2ccccc12)C(=O)N[C@H](CO)C(=O)O` [Compound 7] (Boc-Leu-[dW]-[dS]-OH), for which the inhibition at 1.1 µM was found to be 35%.

As to `CC(C)C[C@H](NC(=O)OC(C)(C)C)C(=O)N[C@H](Cc1c[nH]c2ccccc12)C(=O)N[C@H](CCCCNC(=O)OCc1ccccc1)C(=O)O` [Compound 8] (Boc-Leu-[dW]-[dK](Cbz)-OH), the inhibition at 1.1 µM was found to be 56%.

Turning to `CC(C)C[C@H](NC(=O)OC(C)(C)C)C(=O)N[C@H](Cc1c[nH]c2ccccc12)C(=O)N[C@H](CC(N)=O)C(=O)O` [Compound 9] (Boc-Leu-[dW]-[dN]-OH), for the setting “10 μM test compound (marked *)”, the inhibition at 10 µM was 55%.

As to `CC(C)C[C@H](NC(=O)OC(C)(C)C)C(=O)N[C@H](Cc1c[nH]c2ccccc12)C(=O)N[C@H](CCC(N)=O)C(=O)O` [Compound 10] (Boc-Leu-[dW]-[dQ]-OH), the inhibition at 1.1 µM was 32%.

Turning to `CCCC[C@@H](NC(=O)[C@@H](Cc1c[nH]c2ccccc12)NC(=O)[C@H](CC(C)C)NC(=O)OC(C)(C)C)C(=O)O` [Compound 11] (Boc-Leu-[dW]-[dNle]-OH), the inhibition at 1.1 µM turned out to be 41%.

Turning to `CC(C)C[C@H](NC(=O)OC(C)(C)C)C(=O)N[C@H](Cc1c[nH]c2ccccc12)C(=O)Nc1cccc(C(=O)O)c1` [Compound 12] (Boc-Leu-[dW]-[3Abz]-OH), the inhibition at 1.1 µM is 31%.

Turning to `CC(C)C[C@H](NC(=O)OC(C)(C)C)C(=O)N[C@H](Cc1c[nH]c2ccccc12)C(=O)NC(C)(C)C(=O)O` [Compound 13] (Boc-Leu-[dW]-[Aib]-OH), the inhibition at 1.1 µM was found to be 39%.

As to `CC(C)C[C@H](NC(=O)OC(C)(C)C)C(=O)N[C@H](Cc1c[nH]c2ccccc12)C(=O)NC(CC(=O)O)c1ccccc1` (stereo partly shown) [Compound 14], the inhibition at 1.1 µM worked out at 64%.

With `CC(C)C[C@H](NC(=O)OC(C)(C)C)C(=O)N[C@H](Cc1c[nH]c2ccccc12)C(=O)NC(Cc1cccs1)C(=O)O` (stereo partly drawn) [Compound 15] (Boc-Leu-[dW]-[ξ2Thi]-OH), the inhibition at 1.1 µM came out at 71%.

`CC(C)C[C@H](NC(=O)OC(C)(C)C)C(=O)N[C@H](Cc1c[nH]c2ccccc12)C(=O)NC(Cc1nccs1)C(=O)O` (stereo partly shown) [Compound 16]: the inhibition at 1.1 µM was determined as 74%.

With `CC(C)C[C@H](NC(=O)OC(C)(C)C)C(=O)N[C@H](Cc1c[nH]c2ccccc12)C(=O)NCC(O)C(=O)O` (stereo partly shown) [Compound 17], the inhibition at 1.1 µM came to 38%.

With `CC(C)C[C@H](NC(=O)OC(C)(C)C)C(=O)N[C@H](Cc1c[nH]c2ccccc12)C(=O)N[C@@H](CC(=O)O)Cc1c[nH]c2ccccc12` [Compound 19] (Boc-Leu-[dW]-[d(β3hW)]-OH), the inhibition at 10 µM came out at 53%.

With `CC(C)C[C@H](NC(=O)OC(C)(C)C)C(=O)N[C@H](Cc1c[nH]c2ccccc12)C(=O)N[C@@H](CC(=O)O)Cc1ccccc1` [Compound 20] (Boc-Leu-[dW]-[d(β3hF)]-OH), the inhibition at 1.1 µM was 44%.

Turning to `CC(C)C[C@H](NC(=O)OC(C)(C)C)C(=O)N[C@H](Cc1c[nH]c2ccccc12)C(=O)N[C@H](CC(=O)O)Cc1ccccc1` [Compound 21] (Boc-Leu-[dW]-[β3hF]-OH), the inhibition at 1.1 µM worked out at 39%.

`Cc1nc[nH]c1CSC[C@@H](NC(=O)[C@@H](Cc1c[nH]c2ccccc12)NC(=O)[C@H](CC(C)C)NC(=O)OC(C)(C)C)C(=O)O` [Compound 22]: the inhibition at 10 µM (10 μM test compound (marked *)) was determined as 36%.

Turning to `CC(C)C[C@H](NC(=O)OC(C)(C)C)C(=O)N[C@H](Cc1c[nH]c2ccccc12)C(=O)NCC(=O)NCC(=O)O` [Compound 23] (Boc-L[dW]GG-OH), the inhibition at 1.1 µM was 33%.

`CC(C)C[C@H](NC(=O)OC(C)(C)C)C(=O)N[C@H](Cc1c[nH]c2ccccc12)C(=O)N[C@H](Cc1ccccc1)CS(=O)(=O)O` [Compound 26]: under “10 μM test compound (marked *)”, the inhibition at 10 µM was determined as 36%.

For the compound `CCC[C@H](NC(=O)OC(C)(C)C)C(=O)N[C@H](Cc1c[nH]c2ccccc12)C(=O)NCCC(=O)O` [Compound 28] (Boc-[Nva]-[dW]-[βAla]-OH), the inhibition at 1.1 µM is 38%.

As to `CC(C)C[C@H](NC(=O)OC(C)(C)C)C(=O)N[C@H](Cc1c[nH]c2ccccc12)C(=O)NCCC(=O)O` [Compound 29] (Boc-Leu-[dW]-[βAla]-OH), the inhibition at 1.1 µM turned out to be 69%.

In the case of `CC(C)C[C@@H](C(=O)N[C@H](Cc1c[nH]c2ccccc12)C(=O)NCCC(=O)O)N(C)C(=O)OC(C)(C)C` [Compound 30] (Boc-[NMeL]-[dW]-[βAla]-OH), the inhibition at 1.1 µM came out at 44%.

Take `CC(C)C[C@H](NC(=O)OC(C)(C)C)C(=O)N[C@H](Cc1c[nH]c2ccccc12)C(=O)NCC(=O)O` [Compound 31] (Boc-Leu-[dW]-Gly-OH): the inhibition at 1.1 µM is 45%.

`CC(C)C[C@H](NC(=O)OC(C)(C)C)C(=O)N(C)[C@H](Cc1c[nH]c2ccccc12)C(=O)NCCC(=O)O` [Compound 32] (Boc-Leu-[dNMeW]-[βAla]-OH): the inhibition at 10 µM (10 μM test compound (marked *)) amounted to 32%.

With `CC(C)C[C@H](NC(=O)OC(C)(C)C)C(=O)N[C@H](Cc1c[nH]c2ccccc12)C(=O)N[C@H](CC(=O)OCc1ccccc1)C(N)=O` [Compound 35] (Boc-Leu-[dW]-[dD](OBn)-NH2), the inhibition at 1.1 µM was found to be 35%.

As for `CC(C)C[C@H](NC(=O)OC(C)(C)C)C(=O)N[C@H](Cc1c[nH]c2ccccc12)C(=O)N[C@H](CC(=O)O)C(N)=O` [Compound 36] (Boc-Leu-[dW]-[dD]-NH2), the inhibition at 1.1 µM was found to be 65%.

Regarding `CC(C)C[C@H](NC(=O)OC(C)(C)C)C(=O)N[C@H](Cc1c[nH]c2ccccc12)C(=O)N[C@@H](CC(=O)OCc1ccccc1)C(N)=O` [Compound 37] (Boc-Leu-[dW]-Asp(OBn)-NH2), the inhibition at 10 µM (10 μM test compound (marked *)) was 29%.

In the case of `CC(C)C[C@H](NC(=O)OC(C)(C)C)C(=O)N[C@H](Cc1c[nH]c2ccccc12)C(=O)N[C@@H](CC(=O)O)C(N)=O` [Compound 38] (Boc-Leu-[dW]-Asp-NH2), the inhibition at 1.1 µM was determined as 22%.

Regarding `CC(C)C[C@H](NC(=O)OC(C)(C)C)C(=O)N[C@H](Cc1c[nH]c2ccccc12)C(=O)N[C@H](Cc1ccccc1)C(=O)O` [Compound 39] (Boc-Leu-[dW]-[dF]-OH), the inhibition at 1.1 µM came out at 75%.

`CC(C)C[C@H](NC(=O)OC(C)(C)C)C(=O)N[C@H](Cc1c[nH]c2ccccc12)C(=O)N[C@@H](C(=O)O)c1ccccc1` [Compound 40] (Boc-Leu-[dW]-[dPhg]-OH): the inhibition at 1.1 µM came out at 36%.

`CC(C)C[C@H](NC(=O)OC(C)(C)C)C(=O)N[C@H](Cc1c[nH]c2ccccc12)C(=O)N[C@H](C)C(=O)O` [Compound 41] (Boc-Leu-[dW]-[dA]-OH): the inhibition at 1.1 µM amounted to 65%.

On to `CC(C)C[C@H](NC(=O)OC(C)(C)C)C(=O)N[C@H](Cc1c[nH]c2ccccc12)C(=O)N[C@@H](C(=O)O)c1cccs1` [Compound 42], for which the inhibition at 1.1 µM was found to be 56%.

With `CC(C)C[C@H](NC(=O)OC(C)(C)C)C(=O)N[C@H](Cc1c[nH]c2ccccc12)C(=O)N[C@@H](C(=O)O)C(C)C` [Compound 43] (Boc-Leu-[dW]-[dV]-OH), the inhibition at 10 µM (10 μM test compound (marked *)) is 36%.
